Measured values as given in patent publication US20110118298A1, “COMPOSITIONS, KITS, AND METHODS FOR IDENTIFICATION, ASSESSMENT, PREVENTION, AND THERAPY OF CANCER” (INFINITY PHARMACEUTICALS, INC., priority 2009, published 2011).
Entries after “also recorded” stand apart in the source; their conditions may differ. Structures can show the parent of a compound that is named as a salt.

How the values were obtained:
H3122R cells = test: Growth inhibition of cells selected for resistance to PF-1066; assay type: cell-based, human
HER2 = test: Time to client protein degradation by immunoblot, BT-474 cells; assay type: cell-based, human; conditions: 1 uM IPI-504
Description: FIG. 7B is panel of immunoblot images showing the levels of ALK, phospho-ALK and cleaved-PARP in H3122 cells, HER2 in BT474 cells, and EGFR in H1650 cells at various time points after IPI-504 (1 uM) treatment. Proteins levels were monitored by immunoblotting.
Rearrangements at the ALK locus have been reported in about 5% of NSCLC patients, forming an oncogenic fusion of the N-terminus of EML4 with the C-terminal kinase domain of ALK (Soda, M. et al. (2007) Nature 448: 561-6). To determine whether the EML4-ALK fusion protein is a client protein of Hsp90, we incubated the EML4-ALK-expressing NSCLC cell line H3122 with increasing concentrations of IPI-504 and measured the abundance of total and phosphorylated ALK protein by ELISA (FIG. 7a). In this experiment, virtually all ALK protein is degraded at concentrations above 50 nM IPI-504. The degradation IC50 measured (4 nM) makes this the most sensitive Hsp90 client protein we have encountered. […] To further confirm that EML4-ALK is indeed a client of Hsp90, we performed immunoprecipitations with an antibody directed against Hsp90a, and detected a protein band at the predicted molecular weight ([…]) with an ALK antibody in Hsp90 immunoprecipitates from H3122 cells but not control cells (FIG. 7c, lane 1 and 3). […]

[1] = system: squamous cell carcinoma (SCC); test: Clinical trial, response to IPI-504 by histology; assay type: in vivo, human
Text: This example describes the results from a clinical trial that assessed the efficacy of IPI-504 in patients with squamous cell carcinoma (SCC).
FIGS. 13A-13B depict waterfall plots showing responses to IPI-504 according to cancer subtypes analyzed by histology. The cancers examined were adenocarcinoma (shown as #1), bronchioloalveolar carcinoma (BAC) (shown as #2), large cell lung cancer (shown as #3), squamous cell carcinoma (shown as #4), unknown (shown as #5) and control (shown as #6). Each bar represents one patient. The y-axis of FIG. 13A represents % of tumor volume change from baseline.

[2] = system: tumors of smoker patients; test: Clinical trial, response to IPI-504 by smoking status; assay type: in vivo, human
Text: This example describes the results from a clinical trial that assessed the efficacy of IPI-504, alone or in combination with docetaxel, in smoker patients.
FIG. 27 depicts a waterfall plot showing responses to IPI-504 according to smoking status. The y-axis of FIG. 27 represents % of tumor volume change from baseline. Each bar represents one patient.

carcinoid cell lines = test: Carcinoid cell line panel, growth inhibition; assay type: cell-based; conditions: units given in the value; read-out: GI50 values, all carcinoid cell lines tested
Description: Cell lines BON-1 (a metastatic cell originating from the pancreas), H-720 (a carcinoid cell originating from the lung), QGP-1 (originating from a carcinoma of pancreatic islet cells) and HC45 (a carcinoid cell originating from the ileum) were grown in RPMI-1640 medium supplemented with 10% fetal bovine serum, 1 μg/ml streptomycin and 1 μg/ml penicillin. All cell lines were tested for mycoplasma and maintained at 37° C. in 5% CO2 atmosphere.
Cells were seeded at 10,000 cells/well in 96 well plates for 24 hours and subsequently incubated with increasing concentrations of IPI-504 for 72 hrs, and viability studies were performed using the vital mitochondrial function stain Cell Titer Glow kit (Promega, Madison, Wis.). The data were normalized with respect to DMSO vehicle control to generate growth inhibition GI50 values.
In addition, GI50 values (i.e., the concentration of compound needed to reduce the growth of treated cells to half that of untreated cells) for 17-AG, IPI-504, SNX-2112 and NVP-AUY922 are provided in Table 6. All carcinoid cell lines tested were sensitive to IPI-504 with GI50 values between 10 nM and 1 μM Table 6).

BON-1 xenograft = test: BON-1 xenograft; assay type: in vivo, NCr nude athymic mice; conditions: IPI-504 15 mg/kg i.p. twice per week, end of study
Description: Xenographs were generated by injecting 5×10^6 BON-1 cells into the flanks of […]. IPI-504 (also referred to herein as IPI-504) (15 mg/kg) or vehicle were administered i.p. twice per week (n=10 per arm), and tumor xenograft size was monitored twice weekly with calipers. Results are presented as means and SEM.

[3] = system: EGFR mutant tumors with T790M resistant clones; test: In vivo model of emerging EGFR TKI resistance (T790M)

C=CCNc1c(O)cc2c(O)c1C[C@@H](C)C[C@H](OC)[C@H](O)[C@@H](C)/C=C(\C)[C@H](OC(N)=O)[C@@H](OC)/C=C\C=C(/C)C(=O)N2 [IPI-504, retaspimycin hydrochloride]
GI50 (H3122R cells; Homo sapiens, NCI-H3122, read-out: Res. H3122 (GI50, nM)): 76 nM | sensitivity of H3122R cells (H3122R cells; hydrochloride): remained sensitive; also recorded: retain sensitivity | time for most of the HER2 to be degraded (HER2): about 24 h | patients showing a partial response (PR) ([1]; out of 7 patients with SCC): 3 patients | objective response rate (ORR) ([1]; patients with SCC): 43% | patients showing a partial response (PR) ([2]; out of 21 smoker patients): 6 patients | objective response rate (ORR) ([2]; smoker patients): 29% | GI50 (carcinoid cell lines): 10 to 1000 nM | reduction in tumor size compared with vehicle (BON-1 xenograft): 58%

CO[C@H]1/C=C\C=C(/C)C(=O)NC2=CC(=O)C(N)=C(C[C@@H](C)C[C@H](OC)[C@H](O)[C@@H](C)/C=C(\C)[C@@H]1OC(N)=O)C2=O [IPI-493, 17-AG]
tumor growth inhibition ([3]; compared with gefitinib treatment alone): 61% | animals still on study ([3]; day 45): ~40%
